The results in this text go back to patent US20220232831A1, “NOVEL NON-CODING HETEROCYCLIC AMINO ACIDS (NCHAA) AND THEIR USE AS HERBICIDES” (Fortephest Ltd., priority 2019, published 2022).

Assay [1] relates to Seeds of Lettuce R. (Super-Jericho). As to the kind of experiment: Filter paper bioassay with lettuce seeds (germination and early plant development). The following applies: lettuce seeds on filter paper; 1, 0.1, 0.01, 0.001 mM; radicle and shoots assessed after 6 days. The format is in vivo. In short, it runs like this:
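Lettuce seeds (10 per plate) were placed on filter paper with 2.0 ml water or test material at 1, 0.1, 0.01 or 0.001 mM. Plates were kept dark for 48 h, then grown 4 days at 22° C under a 6/18 dark/light cycle. At day 6, radicle and shoot development was scored visually; MEC is the lowest concentration causing deviation from control.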

Assay [2] concerns Romaine lettuce (Lactuca sativa L.) plants. As to the kind of experiment: Post-emergency herbicidal activity on Romaine lettuce plants. The format is in vivo. Particulars: Romaine lettuce at stage 2 to 3 leaves; compound in 0.1% Silwet, up to 0.5%; visual evaluation vs control plants. In short, it runs like this:
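Plants at the 2 to 3 leaf stage were treated with compound in 0.1% aqueous Silwet at 0.0% (Control) to 0.5%, with 20 to 40 plants per test. Vigor, height and leaf color were scored 0 (dead) to 100 (healthy) at 7, 14 and 21 DAA, and aboveground wet weight was measured.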

Regarding `CCOC(=O)C(Cc1ccnc(OC)n1)NC(C)=O` (stereo not shown) [Code 673], the “Minimal Effective Concentration (MEC) as activity score, seeds germination & early plants development” value (shortened to “Minimal Effective Concentration (MEC)”) in assay [1] is “Weak (More than 1 mM)”. Further, the “post-emergency herbicidal activity (Activity Index: plant's development vs Control)” value in assay [2] is on record as “Weak (More than 75)”.
Consider `COCCOCCOC(=O)C(N)Cc1ccc(Br)nc1` (stereo not shown) [Code 674], for which the “Minimal Effective Concentration (MEC)” value in assay [1] was “Strong (0.1 mM)”. The “post-emergency herbicidal activity (Activity Index: plant's development vs Control)” value in assay [2] is listed as “Moderate (From 50 to 75)”.
On the same counts, the results for `CCOCCOCCOC(=O)C(N)Cc1ccc(Br)nc1` (stereo not shown) [Code 675] are “Strong (0.1 mM)” and “Moderate (From 50 to 75)”.
On the same counts, the results for `C[n+]1cncc(CC(N)C(=O)O)c1` (stereo not shown) [Code 676] are “Moderate (1 mM)” and “Very Strong (From 15 to 25)”.
For `Cl.NC(Cc1ccnc(C(F)(F)F)c1)C(=O)O` (stereo not shown) [Code 679], in assay [1], the “Minimal Effective Concentration (MEC)” value is on record as “Strong (0.1 mM)”. In assay [2], the “post-emergency herbicidal activity (Activity Index: plant's development vs Control)” value is reported as “Strong (From 25 to 50)”.
Consider `NC(CCc1cc[nH]c1)C(=O)O` (stereo not shown) [Code 702], for which the “Minimal Effective Concentration (MEC)” value in assay [1] is “Weak (More than 1 mM)”. Moreover, in assay [2], the “post-emergency herbicidal activity (Activity Index: plant's development vs Control)” value was “Weak (More than 75)”.
The matching figures for `NC(Cc1ccc[nH]1)C(=O)O` (stereo not shown) [Code 703]: “Weak (More than 1 mM)” and “Weak (More than 75)”.
On the same counts, the results for `NC(Cc1cc[nH]c1)C(=O)O` (stereo not shown) [Code 704] are “Weak (More than 1 mM)” and “Weak (More than 75)”.
On the same counts, the results for `NC(Cc1nnc[nH]1)C(=O)O` (stereo not shown) [Code 709] are “Moderate (1 mM)” and “Maximal (Less than 15)”.
As to `O=C(O)[C@@H](O)Cc1c[nH]cn1` [Code 710], the “Minimal Effective Concentration (MEC)” value in assay [1] is reported as “Weak (More than 1 mM)”. Also, the “post-emergency herbicidal activity (Activity Index: plant's development vs Control)” value in assay [2] is reported as “Weak (More than 75)”.
The matching figures for `CCOC(=O)C(Cc1nc[nH]n1)NC(=O)OCc1ccccc1` (stereo not shown) [Code 714]: “Moderate (1 mM)” and “Weak (More than 75)”.
